From patent publication US11925629B2, “Heterocyclic inhibitors of ERK1 and ERK2 and their use in the treatment of cancer” (Asana Biosciences, LLC, priority 2015, dated 2024) come the findings set out here.

Some results are limits rather than exact numbers.

Common to all, as to assay type: cell-based, human
Experiment [1] concerns phosphorylation of RSK1(S380) (the downstream target of ERK1/2). The experiment in a line: Phospho-RSK1(S380) ELISA assay in HT-29 cells. The settings on record: Homo sapiens, HT-29, HT29 cells, phospho-RSK1(S380); read-out: Mechanistic Cell Assay RSK1 Phos HT29 IC50. Here is the method:
Phospho-RSK1(S380) ELISA Assay
HT-29 cells (colorectal carcinoma, B-RafV600E); obtained from ATCC, USA) were seeded (60,000 cells/well) in a 96-well plate and incubated at 37° C./5% CO2 overnight and then treated with desired compound dilutions for 2 h. Medium was removed and cells were rinsed once with ice-cold 1×PBS, then 0.070 mL ice-cold 1× cell lysis buffer containing 1 mM PMSF was added to each well and the plate was incubated on a shaker for 2 h and 30 min at 4° C. The plate was then centrifuged for 20 min (×4000 rpm) at 4° C. and the supernatant was transferred to a new plate. Cell lysates were diluted with sample diluent at a ratio of 1:1. The ELISA was then carried out following the manufacturer's protocol (PathScan® phospho-RSK1(Ser380) Sandwich ELISA Kit, Cell Signaling Technologies). The plate was read at 450 nm within 30 min after adding STOP solution. The IC50 values were subsequently determined using a sigmoidal dose-response curve (variable slope) in GraphPad Prism® 5 software.
On the technique in general: ELISA stands for enzyme-linked immunosorbent assay.

In experiment [2] the test system is HCT116 (colorectal carcinoma, K Ras G13D) cells. The experiment in a line: Cell proliferation (Alamar Blue) assay, HCT116. The settings on record: Homo sapiens, HCT-116, HCT116 cells. The method, then:
(§1) Cell Proliferation (Alamar Blue) Assay
(§2) HT-29 (colorectal carcinoma, B-RafV600E), HCT116 (colorectal carcinoma, K Ras G13D), A375 (melanoma, B-RafV600E) and SK-Mel2 (melanoma, NRAS Q61R) cells (obtained from ATCC, USA) were seeded (5000 cells/well) in 96-well tissue culture plate and incubated at 37° C./5% CO2 for 16-24 hours. The cells were then treated with compounds, at concentrations typically from 0.0005 to 10 uM prepared in 3-fold serial dilutions. The plates were then incubated for 72 h at 37° C./5% CO2 in a moist environment. Then Alamar Blue™ reagent (final concentration 1×) was added to each well and incubated for 1-3 h at 37° C./5% CO2. The plates were read on fluorescence reader at 540 nm excitation and 590 nm emission wavelengths. The IC50 values were subsequently determined using a sigmoidal dose-response curve (variable slope) using GraphPad Prism® 5 software.
(In general: Alamar Blue is a resazurin reagent that responds to reducing activity.)

In experiment [3] the test system is HT-29 (colorectal carcinoma, B-RafV600E) cells. The experiment in a line: Cell proliferation (Alamar Blue) assay, HT-29. The settings on record: Homo sapiens, HT-29, HT29 cells. Here is the method: as §1, §2

With `Cc1cnc(Nc2ccc(F)cc2Cl)nc1-n1ccc(C(=O)N[C@H](CO)c2cccc(Cl)c2)c1` [Cmpd 29, (S)-1-(2-((2-chloro-4-fluorophenyl)-amino)-5-methyl-pyrimidin-4-yl)-N-(1-(3-chlorophenyl)-2-hydroxy-ethyl)-1H-pyrrole-3-carboxamide], the IC50 in experiment [1] lay within 0.25 to 0.5 µM. For `O=C(NC(CO)c1cccc(Cl)c1)c1ccn(-c2ccnc(NC3CCNC3)c2)c1` (stereo not shown) [Example 145, N-(1-(3-chloro-phenyl)-2-hydroxy-ethyl)-1-(2-(pyrrolidin-3-ylamino)pyridin-4-yl)-1H-pyrrole-3-carboxamide], the IC50 in experiment [1] was > 2.5 µM.

As for `Cc1cnc(Nc2ccc(F)cc2)cc1-n1cnc(C(=O)NC(CN)c2ccccc2)c1` (stereo not shown) [Compound #191, N-(2-amino-1-phenylethyl)-1-(2-((4-fluorophenyl)amino)-5-methylpyridin-4-yl)-1H-imidazole-4-carboxamide], the IC50 in experiment [1] is 0.1 to 0.25 µM. As for `Cc1cnc(NC2CCN(C)CC2)nc1-n1cnc(C(=O)N[C@H](CO)c2cccc(Cl)c2)c1` [Example 296, (S)-N-(1-(3-chlorophenyl)-2-hydroxyethyl)-1-(5-methyl-2-((1-methylpiperidin-4-yl)amino)pyrimidin-4-yl)-1H-imidazole-4-carboxamide], the IC50 in experiment [1] was in the range of 0.5 to 2.5 µM. The same measure, in the same setting: with `Cc1cnc(NC2CCOCC2)nc1-n1cnc(C(=O)NCc2sccc2CN)c1` [Example 294, N-((3-(aminomethyl)thiophen-2-yl)methyl)-1-(5-methyl-2-((tetrahydro-2H-pyran-4-yl)amino)pyrimidin-4-yl)-1H-imidazole-4-carboxamide] the figure was > 2.5 µM. Same read-out and setting: under `Cc1cnc(NC2CCOCC2)nc1-n1cnc(C(=O)NC(CO)c2ccsc2)c1` (stereo not shown) [Example 234, N-(2-hydroxy-1-(thiophen-3-yl)ethyl)-1-(5-methyl-2-((tetrahydro-2H-pyran-4-yl)amino)pyrimidin-4-yl)-1H-imidazole-4-carboxamide] stands 0.5 to 2.5 µM; under `Cc1cnc(NC2CCOCC2)nc1-n1cnc(C(=O)N[C@H](CO)c2cc(F)cc(Cl)c2)c1` [Example 295, (S)-N-(1-(3-chloro-5-fluorophenyl)-2-hydroxyethyl)-1-(5-methyl-2-((tetrahydro-2H-pyran-4-yl)amino)pyrimidin-4-yl)-1H-imidazole-4-carboxamide], ≤ 0.1 µM. Turning to `Cc1cnc(Nc2ccc3ocnc3c2)nc1-n1ccc(C(=O)NC(CO)c2ccccc2)c1` (stereo not shown) [Example 104, 1-(2-(benzo[d]oxazol-5-ylamino)-5-methyl-pyrimidin-4-yl)-N-(2-hydroxy-1-phenylethyl)-1H-pyrrole-3-carboxamide], the IC50 in experiment [2] and in experiment [3] was > 2.5 µM each time. Consider `Cc1cnc(Nc2ccccc2)cc1-n1cnc(C(=O)NC(CO)c2ccccc2)c1` (stereo not shown) [Example 89, N-(2-hydroxy-1-phenylethyl)-1-(5-methyl-2-(phenyl-amino)pyridin-4-yl)-1H-imidazole-4-carboxamide], for which the IC50 in experiment [2] and in experiment [3] was > 2.5 µM in each case. As to `Cc1cn(-c2nc(Nc3ccc(F)cc3)ncc2C)cc1C(=O)NC(CO)c1ccccc1` (stereo not shown) [Example 108, 1-(2-((4-fluoro-phenyl)amino)-5-methyl-pyrimidin-4-yl)-N-(2-hydroxy-1-phenylethyl)-4-methyl-1H-pyrrole-3-carboxamide], the IC50 in experiment [2] and in experiment [3] was > 2.5 µM each time. `Cc1cnc(Nc2ccc3c(c2)OCO3)nc1-n1cc(NC(=O)N[C@@H](CO)c2cccc(Cl)c2)cn1` [Example 51, (R)-1-(1-(2-(benzo[d][1,3]dioxol-5-ylamino)-5-methyl-pyrimidin-4-yl)-1H-pyrazol-4-yl)-3-(1-(3-chloro-phenyl)-2-hydroxy-ethyl)urea]: the IC50 in experiment [2] and in experiment [3] was > 2.5 µM each time. On to `Cc1cnc(Nc2ccc(F)cc2)cc1-n1cnc(C(=O)NC(CO)c2ccccc2)c1` (stereo not shown) [Example 222, 1-(2-((4-fluorophenyl)amino)-5-methylpyridin-4-yl)-N-(2-hydroxy-1-phenylethyl)-1H-imidazole-4-carboxamide], for which the IC50 in experiment [2] and in experiment [3] was > 2.5 µM each time. Consider `Cc1cnc(NC2(CO)CC2)nc1-n1ccc(C(=O)NC(CO)c2ccc(F)c(Cl)c2)c1` (stereo not shown) [Example 203, N-(1-(3-chloro-4-fluorophenyl)-2-hydroxyethyl)-1-(2-((1-(hydroxymethyl)cyclopropyl)amino)-5-methylpyrimidin-4-yl)-1H-pyrrole-3-carboxamide], for which the IC50 in experiment [2] and in experiment [3] was > 2.5 µM in each case. In the case of `Cc1cnc(Nc2ccc(F)c(N3CCOCC3)c2)nc1-n1cnc(C(=O)NC(CO)c2cccc(Cl)c2)c1` (stereo not shown) [Example 223, N-(1-(3-chlorophenyl)-2-hydroxyethyl)-1-(2-((4-fluoro-3-morpholinophenyl)amino)-5-methylpyrimidin-4-yl)-1H-imidazole-4-carboxamide], the IC50 in experiment [2] and in experiment [3] was 0.25 to 0.5 µM each time. For the compound `O=C(Nc1cnn(-c2ccnc(Nc3ccccc3Cl)n2)c1)N[C@@H](CO)c1ccccc1` [Example 4, (R)-1-(1-(2-((2-chlorophenyl)amino)pyrimidin-4-yl)-1H-pyrazol-4-yl)-3-(2-hydroxy-1-phenylethyl) urea], the IC50 in experiment [2] and in experiment [3] was > 2.5 µM in each case. Take `Cc1cnc(Nc2ccc3c(c2)OCO3)nc1-n1cc(C(=O)N[C@H](CO)c2cccc(Cl)c2)cn1` [Example 50, (S)-1-(2-(benzo[d][1,3]dioxol-5-ylamino)-5-methyl-pyrimidin-4-yl)-N-(1-(3-chloro-phenyl)-2-hydroxy-ethyl)-1H-pyrazole-4-carboxamide]: the IC50 in experiment [2] and in experiment [3] was > 2.5 µM in each case. Turning to `Cc1cnc(Nc2ccc(F)cc2Cl)nc1-n1cc(C(=O)NC(CO)c2cccc(Cl)c2)cn1` (stereo not shown) [Example 45, 1-(2-((2-chloro-4-fluorophenyl)amino)-5-methyl-pyrimidin-4-yl)-N-(1-(3-chlorophenyl)-2-hydroxy-ethyl)-1H-pyrazole-4-carboxamide], the IC50 in experiment [2] and in experiment [3] was > 2.5 µM each time.

Consider `Cc1cnc(Nc2ccc3c(c2)OCO3)nc1-n1cc(NC(=O)N[C@H](CO)c2ccccc2)cn1` [Cmpd 55, (S)-1-(1-(2-(benzo[d][1,3]dioxol-5-ylamino)-5-methyl-pyrimidin-4-yl)-1H-pyrazol-4-yl)-3-(2-hydroxy-1-phenylethyl) urea], for which the IC50 in experiment [2] and in experiment [3] was > 2.5 µM throughout. With `O=C(NC(CO)c1cccc(Cl)c1)c1ccn(-c2ccnc(Nc3ccccc3)c2)c1` (stereo not shown) [Example 46, N-(1-(3-chloro-phenyl)-2-hydroxy-ethyl)-1-(2-(phenyl-amino)pyridin-4-yl)-1H-pyrrole-3-carboxamide], the IC50 in experiment [2] and in experiment [3] was > 2.5 µM in each case. On to `O=C(Nc1cnn(-c2ccnc(Nc3ccccc3Cl)n2)c1)N[C@H](CO)c1ccccc1` [Example 7, (S)-1-(1-(2-((2-chlorophenyl)amino)pyrimidin-4-yl)-1H-pyrazol-4-yl)-3-(2-hydroxy-1-phenylethyl) urea], for which the IC50 in experiment [2] and in experiment [3] was > 2.5 µM each time. Turning to `CC(=O)NCC(NC(=O)c1ccn(-c2cc(Nc3ccc(F)cc3)ncc2C)c1)c1ccccc1` (stereo not shown) [Example 135, N-(2-acetamido-1-phenylethyl)-1-(2-((4-fluorophenyl)-amino)-5-methyl-pyridin-4-yl)-1H-pyrrole-3-carboxamide], the IC50 in experiment [1] lay in the range of 0.5 to 2.5 µM.

By IC50 is commonly meant the concentration that gives 50% inhibition.
